Patent US9868697B2, “Phytosphingosine derivatives, and composition comprising same for preventing and treating inflammatory skin diseases, autoimmune diseases, and hyperkeratosis diseases” (THE CATHOLIC UNIVERSITY OF KOREA INDUSTRY—ACADEMIC …, priority 2011, dated 2018)
“Also recorded” adds a separate entry of the source.

Key:
NF-κB [1] = experiment: Phosphorylation of IκBα and NF-κB in TPA-stimulated skin keratinocytes, western blot; type: cell-based, human; details: for inhibitory effect on the NF-κB activation: overall conclusion of the NF-κB tests
Procedure: (§1) Herein, in order to verify the effect of novel synthetic YG-II-6 compounds and their lead compound, phytosphingosine, on phosphorylation and degradation of IκBα, which is a protein that inhibits the activity of NF-κB by forming a complex with NF-κB, skin keratinocytes were pre-treated with respective compounds for 1 hour and then stimulated with 400 nM TPA for 15 minutes and 30 minutes, respectively. In order to verify the phosphorylation of NF-κB and the expression level of NF-κB in the cytoplasm and nucleus, skin keratinocytes were stimulated for 15 minutes and 1 hour, respectively. The results were confirmed by western blot analysis. In addition, the nuclear translocation of NF-κB was confirmed through reaction with antibodies, fluorescent labeling, and direct observation by microscopy. In order to verify the activity of the respective compounds at the transcription stage, cells were transfected with plasmids labeled with NF-κB luciferase reporter, and the luciferase activity was measured by the luciferase assay. In addition, the phosphorylation of IκBα and NF-κB was measured in the PTA-stimulated mouse skin.

[2] = tested on: human-derived keratinocytes; experiment: Cytotoxicity on human-derived keratinocytes, WST-1 reagent; type: cell-based; details: WST-1, FIG. 7A
Procedure: (§2) Therefore, in order to verify the degree of the cytotoxicity of the YG-II-6 compounds, their cytotoxicity on human-derived keratinocytes was confirmed by using the WST-1 reagent. In order to verify the effects of the compounds on the expression of proteins associated with apoptosis, the keratinocytes were treated with corresponding concentrations of the respective compound samples and stimulated with TPA for 24 hours, and the expression levels of proteins were confirmed by western blot assay. In addition, human-derived keratinocytes and primary culture skin keratinocytes were treated with the compounds, and after 24 hours, subjected to FITC staining and TUNEL assay, and the skin tissues isolated from TPA-induced mice was subjected to FITC staining

NF-κB [3] = experiment: NF-κB luciferase reporter assay, TPA stimulation; type: cell-based, human; details: FIG. 1C
Procedure: as §1

mouse skin tissues = experiment: Apoptosis in skin tissues of TPA-induced mice, FITC staining; type: in vivo; details: FIGS. 7C to 7E
Procedure: as §2

ERK1/2, p38, and JNK = experiment: MAP kinase phosphorylation in TPA-stimulated skin keratinocytes, western blot; type: cell-based, human; details: 400 nM TPA for 15 minutes, FIG. 4
Procedure: In order to verify the effects of the respective compounds on MAP kinase, skin keratinocytes were treated with the respective compounds for 1 hour, and then stimulated with 400 nM TPA for 15 minutes. The level of phosphorylation was confirmed by western blot assay.

[4] = tested on: human-derived keratinocytes and primary culture skin keratinocytes; experiment: Apoptosis in keratinocytes, FITC staining and TUNEL assay; type: cell-based; details: 24 hours, FIGS. 7C to 7E
Procedure: as §2

NF-κB [5] = experiment: Nuclear translocation of NF-κB, immunostaining, TPA-stimulated skin keratinocytes; type: cell-based, human; details: TPA stimulation, FIG. 1B
Procedure: as §1

NF-κB luciferase activity increased by TPA stimulation (NF-κB [3]) | SMILES | inhibitory effect on the NF-κB activation (NF-κB [1]) | phosphorylation of IκBα and NF-κB increased by TPA stimulation (NF-κB [1]; skin keratinocytes, 1 hour pre-treatment, 400 nM TPA, FIG. 1A) | concentration at which cytotoxicity was shown [2] [µM] | apoptosis in the mouse skin tissues (mouse skin tissues) | phosphorylation of ERK1/2, p38, and JNK (ERK1/2, p38, and JNK) | apoptosis in the TPA-stimulated cells [4] | nuclear translocation of NF-κB (NF-κB [5])
 | CCCCCCCCCCCCCC[C@@H](O)[C@@H](O)[C@H](CO)NC(=O)/C=C/C(=O)O [fYG-II-6, (E)-4-oxo-4-(((2S,3S,4R)-1,3,4-trihydroxyoctadecan-2-yl)amino)but-2-enoic acid] | relatively greater inhibitory effect than mYG-II-6 |  |  |  |  |  | 
inhibited the luciferase activity | CCCCCCCCCCCCCC[C@@H](O)[C@@H](O)[C@@H](N)CO [phytosphingosine] | inhibited the activation of NF-κB | inhibited the phosphorylation of IκBα and NF-κB | 5 to 10 | induced apoptosis | relatively weaker inhibitory activity than the YG-II-6 compounds; also recorded: no or little inhibitory effect | induced apoptosis | inhibited the nuclear translocation of NF-κB
